{"source": "patent EP0623024B1", "about": "“PHARMACEUTICAL BACTERIOCIN COMPOSITIONS AND THEIR USE FOR TREATING GASTROINTESTINAL DISORDERS” (APPLIED MICROBIOLOGY, INC., priority 1992, dated 1993)", "key": {"[1]": {"test_system": "Helicobacter pylori", "test": "germicidal suspension assay", "conditions": "nisin 0 or 100 µg/ml, 37°C"}, "[2]": {"test_system": "Campylobacter jejuni ATCC29428", "test": "germicidal suspension assay", "conditions": "nisin 0 or 100 µg/ml, 37°C"}, "[3]": {"test_system": "E. coli strain ATCC8739", "test": "nisin-citrate agar assay (growth inhibition on nutrient agar)", "type": "cell-based", "description": "However, nisin in the presence of citrate is active against gram negative bacteria. […] This nisin-citrate agar assay has much more general applicability. The assay provides a method for screening potential agents other than citrate in combination with nisin for their potential properties as enhancers of nisin's inherent bactericidal activity. Examples of other organic acids in combination with nisin would include acetate, propionate, lactate, succinate, fumarate, malonate, adipate, sorbate, phosphate and ascorbate.\nThe nisin-citrate agar assay is performed as follows. E. coli is resuspended to an optical density of 1.0 at A600. A 100 µl sample of the bacterial suspension is spread uniformly on Trypticase Soy nutrient agar (TSA) supplemented with various concentrations of citrate (eg. 0.1%, 0.3%, 1.0%, 3.0%) and incubated for 1 hour at 37°C. A nisin stock solution and serial dilutions thereof in 0.1% bovine serum albumin (BSA), are prepared and 5 µl are taken from each and deposited onto the growing bacterial lawn. The TSA plates are then incubated for 24 hours at 37°C. After 24 hours at 37°C, E. coli grown on TSA supplemented with citrate form a confluent lawn. […] The effectiveness of nisin against the gram negative bacteria can be assessed from determining the minimum amount of nisin required to produce a clear zone of growth inhibition. As the concentration of citrate in the nutrient agar is increased, less nisin is required to inhibit the growth of E. coli, as is illustrated by the data shown in Table 6."}, "[4]": {"test_system": "Campylobacter jejuni ATCC29428", "test": "germicidal suspension assay", "type": "cell-based", "conditions": "for % survival at 5 min: pH 5.0, nisin 100 µg/ml, 37°C"}, "[5]": {"test_system": "Helicobacter pylori", "test": "germicidal suspension assay", "type": "cell-based", "conditions": "37°C"}, "[6]": {"test_system": "Escherichia coli", "test": "germicidal suspension assay of chelator-enhanced nisin in acid vehicles", "type": "cell-based", "conditions": "for % survival at 1 min: 37°C", "procedure": "The rapid activities of various chelator-enhanced nisin formulations were evaluated in acid vehicles in a germicidal suspension assay.\nE. coli cells from an overnight Trypticase soy nutrient agar (TSA) were resuspended to a density measured as an absorbance of 1.0 at 600 nm in sterile ddH2O. The reaction of the cells with each of the bactericidal test formulations analyzed was started by addition of 30 µl of cells to 970 µl of test formulation. The reaction mixture was incubated at 37°C for at least 1 minute and then centrifuged in a microfuge for 1 minute. The cell pellet was washed by resuspension in 1 ml of neutralization buffer. (The neutralization buffer: 50 mM Tris-HCl, pH 7.0, 5 mM MgSO4, 20 mM CaC12, 0.1 M NaCl and 0.1% gelatin was prepared by first making Tris buffer and adjusting the pH. The salts and gelatin were then added and the solution stirred with heat until the solution was clear. The solution was then autoclaved for 20 min. The neutralization buffer was used without dilution.) The cells were centrifuged in a microfuge for 1 minute and resuspended in 1 ml of neutralization buffer. The viable count was determined by spreading 100 µl of bacterial suspension and serial dilutions thereof in neutralization buffer on nutrient agar and scoring surviving colonies after 24 h at 37°C. Percent survival relative to untreated controls was calculated from the scored values.\nIn Table 1 and subsequent Tables 2, 4 and 8-13 values preceded by \"<\" represent the percent survival figures, based on the initial concentration of viable bacteria (expressed as colony forming units (cfu) /ml) in the assayed bacterial suspension and the aliquot volume of said suspension taken for assay, corresponding to the detection of no surviving colonies."}}, "note": "“And” between values parts separate entries of the source, which are not always exact repeats. Equal entries are not always repeated. Marks after values point to notes of the source that are not given here. Ends that are not written are not given here."}
{"molecule": "O=C(O)CC(O)(CC(=O)O)C(=O)O", "note": "[Citrate]", "values": [{"measurement": "% survival at 5 min", "setting": "[1]; strain ATCC 43504, 0.1% citrate adjusted to pH 5.0", "value": "68.5^d %"}, {"measurement": "% survival at 5 min", "setting": "[1]; strain ATCC 43504, 0.3% citrate adjusted to pH 5.0", "value": "100^e %"}, {"measurement": "% survival at 5 min", "setting": "[1]; strain ATCC 43579, 0.1% citrate adjusted to pH 2.5", "value": "<5.0x10^-4%"}, {"measurement": "% survival at 5 min", "setting": "[1]; strain ATCC 43579, 0.1% citrate adjusted to pH 3.0", "value": "1.1x10^-3%"}, {"measurement": "% survival at 5 min", "setting": "[1]; strain ATCC 43579, 0.1% citrate adjusted to pH 5.0", "value": "97.2^b %"}, {"measurement": "% survival at 5 min", "setting": "[2]; 0.3 % w/v citrate pH 5.0", "value": "<6.4x10^-3%"}, {"measurement": "% survival at 5 min", "setting": "[2]; 1.0 % w/v citrate pH 5.0", "value": "<6.4x10^-3%"}]}
{"molecule": "nisin (ITSISLCTPGCKTGALMGCNMKTATCHCSIHVSK; also: lantibiotic nisin A: thioether rings and dehydrated residues not placed; UniProt P13068 24-57, looked up) [lanthionine-containing bacteriocin]", "values": [{"measurement": "Nisin NIC (nominal inhibitory concentration of nisin minimally required to prevent growth)", "setting": "[3]; Trypticase Soy Agar supplemented with 0.1% citrate", "value": 370, "unit": "µg/mL"}, {"measurement": "Nisin NIC (nominal inhibitory concentration of nisin minimally required to prevent growth)", "setting": "[3]; Trypticase Soy Agar supplemented with 0.3% citrate", "value": 123, "unit": "µg/mL"}, {"measurement": "Nisin NIC (nominal inhibitory concentration of nisin minimally required to prevent growth)", "setting": "[3]; Trypticase Soy Agar supplemented with 1.0% citrate", "value": 13.7, "unit": "µg/mL"}, {"measurement": "Nisin NIC (nominal inhibitory concentration of nisin minimally required to prevent growth)", "setting": "[3]; Trypticase Soy Agar supplemented with 3.0% citrate", "value": 0.06, "unit": "µg/mL"}, {"measurement": "Nisin NIC (nominal inhibitory concentration of nisin minimally required to prevent growth)", "setting": "[3]; Trypticase Soy Agar with 0% citrate", "value": "3,333 µg/ml"}, {"measurement": "% survival at 5 min", "setting": "[4]; EDTA 0", "value": "<5.0x10^-4%"}, {"measurement": "% survival at 5 min", "setting": "[4]; citrate 0", "value": "<6.4x10^-3%"}, {"measurement": "effectiveness towards C. jejuni", "setting": "[4]; nisin by itself", "value": "extremely effective"}, {"measurement": "% survival at 5 min", "setting": "[5]; strain ATCC 43504, EDTA 0, nisin 100 µg/ml, pH 5.0, incubated in presence of 20 mM acetate", "value": "7.03^e %"}, {"measurement": "% survival at 5 min", "setting": "[5]; strain ATCC 43504, citrate 0, nisin 100 µg/ml, 20 mM acetate, pH 5.0, two experiments (initial count 2.7 x 10^5 and 3.7 x 10^4 cfu/ml)", "value": "0.69^d % and 4.86^e %"}, {"measurement": "% survival at 5 min", "setting": "[5]; strain ATCC 43504, pH 5.0, citrate 0, nisin 100 µg/ml", "value": 0.043, "unit": "%"}, {"measurement": "% survival at 5 min", "setting": "[5]; strain ATCC 43504, pH 7.0, citrate 0, nisin 100 µg/ml", "value": 2.08, "unit": "%"}, {"measurement": "% survival at 5 min", "setting": "[5]; strain ATCC 43526, pH 7.0, EDTA 0, nisin 100 µg/ml", "value": 5.88, "unit": "%"}, {"measurement": "% survival at 5 min", "setting": "[5]; strain ATCC 43579, citrate 0, nisin 100 µg/ml, 20 mM acetate, pH 5.0, average of 5 experiments", "value": "0.30^c %"}, {"measurement": "% survival at 5 min", "setting": "[5]; strain ATCC 43579, citrate 0, nisin 100 µg/ml, 20 mM acetate, pH 5.0, single experiment", "value": "8.6x10^-3 ^e %"}, {"measurement": "% survival at 5 min", "setting": "[5]; strain ATCC 43579, nisin 10 µg/ml, without or with 0.1% citrate pH 5.0", "value": 1.41, "unit": "%"}, {"measurement": "% survival at 5 min", "setting": "[5]; strain ATCC 43579, nisin 30 µg/ml, without or with 0.1% citrate pH 5.0", "value": 0.39, "unit": "%"}, {"measurement": "% survival at 5 min", "setting": "[5]; strain ATCC 43579, nisin 100 µg/ml, without or with 0.1% citrate pH 5.0", "value": 0.085, "unit": "%"}, {"measurement": "% survival at 5 min", "setting": "[5]; strain ATCC 43579, nisin 300 µg/ml, without or with 0.1% citrate pH 5.0", "value": 0.0056, "unit": "%"}, {"measurement": "% survival at 5 min", "setting": "[5]; strain ATCC 43579, pH 5.0, EDTA 0, nisin 100 µg/ml", "value": 4.7, "unit": "%"}, {"measurement": "% survival at 5 min", "setting": "[5]; strain ATCC 43579, pH 5.0, citrate 0, nisin 100 µg/ml", "value": 9.62, "unit": "%"}, {"measurement": "% survival at 5 min", "setting": "[5]; strain ATCC 43579, pH 7.0, citrate 0, nisin 100 µg/ml", "value": 0.78, "unit": "%"}, {"measurement": "% survival at 1 min", "setting": "[6]; 0.1 % w/v acetate pH 3.5, nisin 100 µg/ml and/or EDTA 1.0 mM, or acetate alone", "value": 9.6, "unit": "%"}, {"measurement": "% survival at 1 min", "setting": "[6]; 0.1 % w/v lactate pH 3.5, nisin 100 µg/ml and/or EDTA 1.0 mM, or lactate alone", "value": 4.4, "unit": "%"}, {"measurement": "% survival at 1 min", "setting": "[6]; 0.1 % w/v succinate pH 3.5, nisin 100 µg/ml and/or EDTA 1.0 mM, or succinate alone", "value": 18.3, "unit": "%"}, {"measurement": "% survival at 1 min", "setting": "[6]; 0.3 % w/v acetate pH 3.5, nisin 100 µg/ml and/or EDTA 1.0 mM, or acetate alone", "value": 70, "unit": "%"}, {"measurement": "% survival at 1 min", "setting": "[6]; 0.3 % w/v lactate pH 3.5, nisin 100 µg/ml and/or EDTA 1.0 mM, or lactate alone", "value": 0.24, "unit": "%"}, {"measurement": "% survival at 1 min", "setting": "[6]; 0.3 % w/v succinate pH 3.5, nisin 100 µg/ml and/or EDTA 1.0 mM, or succinate alone", "value": 66.6, "unit": "%"}, {"measurement": "% survival at 1 min", "setting": "[6]; 1.0 % w/v acetate pH 3.5, nisin 100 µg/ml and/or EDTA 1.0 mM, or acetate alone", "value": 100, "unit": "%"}, {"measurement": "% survival at 1 min", "setting": "[6]; 1.0 % w/v lactate pH 3.5, nisin 100 µg/ml and/or EDTA 1.0 mM, or lactate alone", "value": 17.8, "unit": "%"}, {"measurement": "% survival at 1 min", "setting": "[6]; 1.0 % w/v succinate pH 3.5, nisin 100 µg/ml and/or EDTA 1.0 mM, or succinate alone", "value": 83.4, "unit": "%"}, {"measurement": "% survival at 1 min", "setting": "[6]; 3.0 % w/v acetate pH 3.5, nisin 100 µg/ml and/or EDTA 1.0 mM, or acetate alone", "value": 100, "unit": "%"}, {"measurement": "% survival at 1 min", "setting": "[6]; 3.0 % w/v lactate pH 3.5, nisin 100 µg/ml and/or EDTA 1.0 mM, or lactate alone", "value": 26.7, "unit": "%"}, {"measurement": "% survival at 1 min", "setting": "[6]; 3.0 % w/v succinate pH 3.5, nisin 100 µg/ml and/or EDTA 1.0 mM, or succinate alone", "value": 28.4, "unit": "%"}, {"measurement": "survival of E. coli on exposure to the agent by itself", "setting": "[6]; each agent by itself", "value": "unaffected"}, {"measurement": "% survival at 1 min", "setting": "[6]; pH 2.0, 20 mM Na acetate buffer, nisin 100 µg/ml and/or EDTA 1.0 mM", "value": 0.28, "unit": "%"}, {"measurement": "% survival at 1 min", "setting": "[6]; pH 2.5, 20 mM Na acetate buffer, nisin 100 µg/ml and/or EDTA 1.0 mM", "value": 3.37, "unit": "%"}, {"measurement": "% survival at 1 min", "setting": "[6]; pH 3.0, 20 mM Na acetate buffer, nisin 100 µg/ml and/or EDTA 1.0 mM", "value": 4.43, "unit": "%"}, {"measurement": "% survival at 1 min", "setting": "[6]; pH 3.5, 20 mM Na acetate buffer, nisin 100 µg/ml and/or EDTA 1.0 mM", "value": 100, "unit": "%"}, {"measurement": "% survival at 1 min", "setting": "[6]; pH 4.0, 20 mM Na acetate buffer, nisin 100 µg/ml and/or EDTA 1.0 mM", "value": 100, "unit": "%"}]}
